Laboratory results from US20140039044A1, “Hydroxylated Polymethoxyflavone Compositions” (WLLGEN, INC., priority 2006, published 2014).
Like-named read-outs stand apart in the source and are kept apart here.

Tests used:
Type in all cases: cell-based, human
HT-29 cells [1] = assay: Apoptotic ratio by propidium iodide flow cytometry (AC50); details: read-out: Apoptosis-inducing AC50
Method: (§1) The human cancer cells (2×10^5) were cultured in 60-mm Petri dishes and incubated for 24 h. After treated with test compounds for 24 h, the cells were then harvested, washed with PBS resuspended in 200 μL of PBS, and fixed in 800 μL of iced 100% ethanol at −20° C. After being left to stand overnight, the cell pellets were collected by centrifugation, resuspended in 1 mL of hypotonic buffer (0.5% Triton X-100 in PBS and 0.5 μg/mL RNase) and incubated at 37° C. for 30 min. Next, 1 mL of propidium iodide solution (50 μg/mL) was added, and the mixture was allowed to stand on ice for 30 min. Fluorescence emitted from the propidium iodide-DNA complex was quantitated after excitation of the fluorescent dye by FACScan cytometry (Becton Dickinson, San Jose, Calif.).
(§2) The PMF compounds were assayed in vitro for cell growth inhibition and for their ability to induce apoptosis in various human cancer cells, including HL-60, AGS, COLO 205, and HT-29 cells, using methods described in Section 8.4 above. Antiproliferative (IC50) and apoptosis-inducing activity (AC50) of PMFs in the HL-60, AGS, COLO 205, and HT-29 cells are reported in Table 9, where *P<0.05, **P<0.01 and ***P<0.001 indicate statistically significant differences from the control group.

COLO205 cells [2] = assay: Cell survival assay (antiproliferative IC50); details: COLO205 cells, read-out: Antiproliferative IC50
Method: (§3) Human colon carcinoma COLO205 and HT-29 cell lines (American Type Culture Collection (ATTC), Manassas, Va.) and the leukemia cell line HL-60 were maintained at 37° C. in 5% CO2 air in RPMI 1640 medium supplemented with 10% heat-inactivated fetal bovine serum (Gibco BRL, Grand Island, N.Y.), 100 units/mL penicillin, 100 μg/mL streptomycin and 2 mM 1-glutamine. The human gastric carcinoma AGS cell line (CCRC 60102), obtained from the Food Industry Research and Development Institute (Hsinchu, Taiwan), was maintained as described above, except that DMEM/F 12 was used as the medium rather than the RPMI 1640 medium. The human breast carcinoma MCF-7 cell line MCF-7 (ATTC) was cultured in RPMI 1640 medium supplemented with 5% fetal calf serum at 37° C. in a humidified atmosphere of 5% CO2 in air. The mouse macrophage cell line RAW 264.7 was maintained in RPMI 1640 supplemented with 100 U/ml penicillin, 100 μg/ml streptomycin, and 10% heat-inactivated fetal calf serum.
(§4) Cancer cells (2×10^5) were plated in 12-well Petri dishes. The next day, the medium was changed and treated with different concentration of the test compounds or compositions for 24 h. Where individual compounds were to be tested, stock solutions of the compound was prepared to contain 200 μM of the individual hydroxylated or non-hydroxylated PMF in dimethylsulfoxide (DMSO). Control cells were treated with DMSO to a final concentration of 0.05% (v/v). Depending on the objective of the particular experiment, cells were treating with test compound or composition for 1, 3 or 6 days. At the end of incubation, cells were harvested for cell count using a hemocytometer and measuring the cellular total nucleic acid content with the CyQUANT Cell Proliferation Assay Kit (Molecular Probes).
(§5) 1 N PMF and 6 N PMF compositions containing hydroxylated PMFs, prepared as described in Section 8.3 above, 70% PMF OPE and 5,6,7,8,3′,4′-hexamethoxyflavone (nobiletin) were tested for antiproliferative activity and apoptosis-inducing activity in HL-60, AGS and COLO205 cells as described in Section 8.4 above. Antiproliferative and apoptosis-inducing activities were derived as IC50 values and AC50, values, respectively, where AC50 is the concentration required for 50% apoptosis.
as §2

AGS cells [3] = assay: Cell survival assay (antiproliferative IC50); details: AGS cells, read-out: Antiproliferative IC50
Method: as §3, §4, §5, §2

HL-60 cells [4] = assay: Apoptotic ratio by propidium iodide flow cytometry (AC50); details: HL-60 cells, read-out: Apoptosis-inducing AC50
Method: as §1, §5, §2

COLO205 cells [5] = assay: as above; details: COLO205 cells, read-out: Apoptosis-inducing AC50
Method: as §1, §5, §2

AGS cells [6] = assay: as above; details: AGS cells, read-out: Apoptosis-inducing AC50
Method: as §1, §5, §2

HT-29 cells [7] = assay: Cell survival assay (antiproliferative IC50)
Method: as §3, §4, §2

HL-60 cells [8] = assay: Cell cycle distribution by flow cytometry; details: for Cell Cycle Distribution G0/G1 / Cell Cycle Distribution G2/M / Cell Cycle Distribution S: Table 10
Method: as §1
The effects of the hydrolyzed PMF-enriched compositions, nobiletin and 70% PMF OPE on cell cycle distribution were studied, following the procedures described in Section 8.4. Results for cell cycle distribution in HL-60 cells, COLO205 cells and AGS cells are provided in Table 5, Table 6 and Table 7, respectively. […] In HL-60 cells, G2/M arrest predominated in cells treated with 6N PMF concentrations ≧5 μM and with 1N PMF concentrations ≧25 μM.
(§6) Compounds A-K were evaluated in terms of their effects in arresting cell cycle progression by observing cell cycle phase distribution in cells treated with the compounds. Cells were treated with 5, 10, 25, 50, and 100 μM of one of compound A-K or DMSO (control) for 24 h and subjected to flow cytometric analysis after staining their DNA, as described above.

HT-29 cells [9] = assay: Cell cycle distribution by flow cytometry; details: for Cell Cycle Distribution G0/G1 / Cell Cycle Distribution G2/M / Cell Cycle Distribution S: 24 h
Method: as §1, §6
Similar cell cycle phase distribution studies were performed in AGS, COLO205, and HT-29 cells in response to individual PMFs, with results reported in Tables 11, 12 and 13, respectively.

SMILES	Cell Cycle Distribution G0/G1 (HL-60 cells [8]; 5 μM, 24 h)	Cell Cycle Distribution G2/M (HL-60 cells [8]; 5 μM, 24 h)	Cell Cycle Distribution S (HL-60 cells [8]; 5 μM, 24 h)	Cell Cycle Distribution G0/G1 (HL-60 cells [8]; 10 μM, 24 h)	Cell Cycle Distribution G2/M (HL-60 cells [8]; 10 μM, 24 h)	Cell Cycle Distribution S (HL-60 cells [8]; 10 μM, 24 h)	Cell Cycle Distribution G0/G1 (HL-60 cells [8]; 25 μM, 24 h)	Cell Cycle Distribution G2/M (HL-60 cells [8]; 25 μM, 24 h)	Cell Cycle Distribution S (HL-60 cells [8]; 25 μM, 24 h)	Cell Cycle Distribution G0/G1 (HL-60 cells [8]; 50 μM, 24 h)	Cell Cycle Distribution G2/M (HL-60 cells [8]; 50 μM, 24 h)	Cell Cycle Distribution S (HL-60 cells [8]; 50 μM, 24 h)	Cell Cycle Distribution G0/G1 (HL-60 cells [8]; 100 μM, 24 h)	Cell Cycle Distribution G2/M (HL-60 cells [8]; 100 μM, 24 h)	Cell Cycle Distribution S (HL-60 cells [8]; 100 μM, 24 h)	Cell Cycle Distribution G0/G1 (HT-29 cells [9]; 5 μM)	Cell Cycle Distribution G2/M (HT-29 cells [9]; 5 μM)	Cell Cycle Distribution S (HT-29 cells [9]; 5 μM)	Cell Cycle Distribution G0/G1 (HT-29 cells [9]; 10 μM)	Cell Cycle Distribution G2/M (HT-29 cells [9]; 10 μM)	other results
COc1ccc(-c2cc(=O)c3c(O)c(OC)c(OC)c(OC)c3o2)cc1O [Compound K, 5,3′-dihydroxy-6,7,8,4′-tetramethoxyflavone]	0.56 ± 0.76	35.91 ± 0.11	60.54 ± 4.90	0.38 ± 0.06	54.41 ± 4.77	45.22 ± 4.83	0.68 ± 0.42	49.12 ± 2.64	50.23 ± 3.08	2.63 ± 2.50	45.05 ± 0.01	52.33 ± 2.51	3.18 ± 2.62	30.61 ± 4.64	66.21 ± 1.72	60.57 ± 0.04	9.87 ± 0.78	29.71 ± 0.94	57.94 ± 0.50	11.52 ± 0.27	AC50 (HT-29 cells [1]; Homo sapiens): > 100 µM; IC50 (COLO205 cells [2]; Homo sapiens, COLO 205): 11.2 µM; IC50 (AGS cells [3]; Homo sapiens): 9.61 µM; AC50 (HL-60 cells [4]; Homo sapiens): > 100 µM; AC50 (COLO205 cells [5]; Homo sapiens, COLO 205): > 100 µM; AC50 (AGS cells [6]; Homo sapiens): 70 ± 1.4 µM; IC50 (HT-29 cells [7]; Homo sapiens): 40 µM; G2/M cell cycle arrest, in words (HL-60 cells [8]): strongly potentiated the G2/M cell cycle arrest; G2/M cell cycle arrest, in words (HT-29 cells [9]): strongly potentiated the G2/M cell cycle arrest; Cell Cycle Distribution S (HT-29 cells [9]; 10 μM): 30.55 ± 0.77; Cell Cycle Distribution G0/G1 (HT-29 cells [9]; 25 μM): 50.58 ± 1.35; Cell Cycle Distribution G2/M (HT-29 cells [9]; 25 μM): 12.49 ± 0.09; Cell Cycle Distribution S (HT-29 cells [9]; 25 μM): 36.94 ± 1.45; Cell Cycle Distribution G0/G1 (HT-29 cells [9]; 50 μM): 64.13 ± 0.83; Cell Cycle Distribution G2/M (HT-29 cells [9]; 50 μM): 13.14 ± 0.47; Cell Cycle Distribution S (HT-29 cells [9]; 50 μM): 22.73 ± 0.37; Cell Cycle Distribution G0/G1 (HT-29 cells [9]; 100 μM): 47.16 ± 2.59; Cell Cycle Distribution G2/M (HT-29 cells [9]; 100 μM): 36.12 ± 4.37; Cell Cycle Distribution S (HT-29 cells [9]; 100 μM): 16.72 ± 1.73
COc1ccc(-c2oc3c(OC)c(OC)c(OC)c(OC)c3c(=O)c2OC)cc1OC [D, 3,5,6,7,8,3,4-heptamethoxyflavone, reference compound]	50.66 ± 1.20	4.88 ± 0.49	44.46 ± 0.49	52.79 ± 0.99	5.09 ± 0.35	42.12 ± 0.49	57.63 ± 0.14	0.09 ± 0.71	42.28 ± 0.57	80.79 ± 0.71	0.21 ± 0.42	19.00 ± 0.78	84.06 ± 0.57	0.47 ± 0.21	15.47 ± 1.06	67.79 ± 0.17	7.56 ± 0.23	24.66 ± 0.06	57.61 ± 0.69	10.41 ± 0.45	AC50 (HT-29 cells [1]): > 100 µM; IC50 (COLO205 cells [2]): 62.5 ± 1.81 µM; IC50 (AGS cells [3]): > 100 µM; AC50 (HL-60 cells [4]): > 100 µM; AC50 (COLO205 cells [5]): > 100 µM; AC50 (AGS cells [6]): > 100 µM; IC50 (HT-29 cells [7]): > 100 µM; Cell cycle arrest, in words (HL-60 cells [8]; 25-100 μM, 24 h): significant G1 arrest; Cell Cycle Distribution S (HT-29 cells [9]; 10 μM): 30.98 ± 1.18; Cell Cycle Distribution G0/G1 (HT-29 cells [9]; 25 μM): 76.11 ± 1.56; Cell Cycle Distribution G2/M (HT-29 cells [9]; 25 μM): 9.04 ± 2.77; Cell Cycle Distribution S (HT-29 cells [9]; 25 μM): 14.89 ± 1.21; Cell Cycle Distribution G0/G1 (HT-29 cells [9]; 50 μM): 77.31 ± 2.82; Cell Cycle Distribution G2/M (HT-29 cells [9]; 50 μM): 12.21 ± 0.74; Cell Cycle Distribution S (HT-29 cells [9]; 50 μM): 20.49 ± 2.09; Cell Cycle Distribution G0/G1 (HT-29 cells [9]; 100 μM): 80.66 ± 0.01; Cell Cycle Distribution G2/M (HT-29 cells [9]; 100 μM): 3.79 ± 0.43; Cell Cycle Distribution S (HT-29 cells [9]; 100 μM): 15.57 ± 0.43; Cell cycle arrest, in words (HT-29 cells [9]; 5-100 μM, 24 h exposure): significant accumulation of cells in G1 phase
COc1cc(-c2cc(=O)c3c(O)c(OC)c(OC)c(OC)c3o2)cc(OC)c1OC [E, 5-hydroxy-6,7,8,3′,4′,5′-hexamethoxyflavone]	40.16 ± 1.10	6.01 ± 1.64	53.83 ± 0.54	40.43 ± 2.14	5.57 ± 1.17	54.01 ± 0.98	41.35 ± 2.50	6.27 ± 1.05	52.38 ± 1.46	37.64 ± 1.09	7.73 ± 0.62	54.64 ± 0.49	42.95 ± 0.11	7.27 ± 0.84	49.79 ± 0.95	57.96 ± 0.21	10.19 ± 0.07	31.85 ± 0.14	57.86 ± 0.31	10.01 ± 0.46	AC50 (HT-29 cells [1]; Homo sapiens): > 100 µM; IC50 (COLO205 cells [2]; Homo sapiens, COLO 205): > 100 µM; IC50 (AGS cells [3]; Homo sapiens): > 100 µM; AC50 (HL-60 cells [4]; Homo sapiens): > 100 µM; AC50 (COLO205 cells [5]; Homo sapiens, COLO 205): > 100 µM; AC50 (AGS cells [6]; Homo sapiens): > 100 µM; IC50 (HT-29 cells [7]; Homo sapiens): > 100 µM; Cell Cycle Distribution S (HT-29 cells [9]; 10 μM): 32.14 ± 0.78; Cell Cycle Distribution G0/G1 (HT-29 cells [9]; 25 μM): 59.20 ± 0.06; Cell Cycle Distribution G2/M (HT-29 cells [9]; 25 μM): 9.63 ± 0.69; Cell Cycle Distribution S (HT-29 cells [9]; 25 μM): 31.18 ± 0.74; Cell Cycle Distribution G0/G1 (HT-29 cells [9]; 50 μM): 58.95 ± 0.95; Cell Cycle Distribution G2/M (HT-29 cells [9]; 50 μM): 9.26 ± 0.16; Cell Cycle Distribution S (HT-29 cells [9]; 50 μM): 31.79 ± 1.12; Cell Cycle Distribution G0/G1 (HT-29 cells [9]; 100 μM): 61.79 ± 1.47; Cell Cycle Distribution G2/M (HT-29 cells [9]; 100 μM): 8.79 ± 1.23; Cell Cycle Distribution S (HT-29 cells [9]; 100 μM): 29.42 ± 0.24
